According to US20230203081A1, “LINCOSAMIDE ANTIBIOTICS AND USES THEREOF” (President and Fellows of Harvard College, priority 2020, published 2023):
Converted amounts (≈) assume the structure as drawn. Where two headings read alike, the source gives them in different places.

Key:
Type in all cases: cell-based
E. faecium Clinical VRE = assay: MIC (broth microdilution or agar dilution, CLSI); conditions: E. faecium Clinical VRE
Procedure: (§1) Minimum inhibitory concentrations (MICs) were determined by broth microdilution method or agar dilution method following the Clinical and Laboratory Standards Institute guidelines. Standard bacterial strains were obtained from American Type Culture Collection (ATCC). Other bacterial strains were obtained from hospitals and commercial sources, so noted in Table 11. Before the start of the MIC experiment, standard and test compound stock solutions were prepared in dimethyl sulfoxide (DMSO, Aldrich D2650) at a stock concentration of 5,120 μg/mL. The compound concentration range typically employed for each experiment was 128-0.06 μg/mL (2.5% final DMSO concentration). Clindamycin was used as a comparator in all experiments and each experiment was performed in triplicate. Specialized procedures were employed for streptococcal and anaerobic strains. All other bacterial strains were sub-cultured on blood agar plates (tryptic soy agar with 5% sheep blood, Hardy Diagnostics) and incubated overnight at 35° C. Organisms were suspended in cation-adjusted Mueller-Hinton broth (CaMHB, BD 212322) and optical density was adjusted to 0.5 McFarland standard. Suspensions were further diluted to obtain a final inoculum of 5×10^5 CFU/mL for broth microdilution experiments.

S. aureus cErmA = assay: MIC (broth microdilution or agar dilution, CLSI); conditions: S. aureus cErmA
Procedure: as §1

P. aeruginosa ATCC 27853 = assay: MIC (broth microdilution or agar dilution, CLSI); conditions: P. aeruginosa ATCC 27853
Procedure: as §1

E. faecalis ATCC 29212 = assay: MIC (broth microdilution or agar dilution, CLSI)
Procedure: (§2) Minimum inhibitory concentrations (MICs) were determined by broth microdilution method or agar dilution method following the Clinical and Laboratory Standards Institute guidelines. Standard bacterial strains were obtained from American Type Culture Collection (ATCC). Other bacterial strains were obtained from hospitals and commercial sources, so noted in Table 11. […] Specialized procedures were employed for streptococcal and anaerobic strains. All other bacterial strains were sub-cultured on blood agar plates (tryptic soy agar with 5% sheep blood, Hardy Diagnostics) and incubated overnight at 35° C. […] Suspensions were further diluted to obtain a final inoculum of 5×10^5 CFU/mL for broth microdilution experiments.

K. oxytoca Clinical = assay: MIC (broth microdilution or agar dilution, CLSI); conditions: K. oxytoca Clinical
Procedure: as §2

A. baumannii ATCC 19606 = assay: MIC (broth microdilution or agar dilution, CLSI); conditions: A. baumannii ATCC 19606
Procedure: as §2

E. coli ATCC 25922 = assay: MIC (broth microdilution or agar dilution, CLSI); conditions: E. coli ATCC 25922
Procedure: as §2

S. aureus ATCC 29213 = assay: MIC (broth microdilution or agar dilution, CLSI)
Procedure: as §2

S. pneumoniae ATCC 49619 = assay: MIC (broth microdilution or agar dilution, CLSI)
Procedure: as §2

E. coli LptD = assay: MIC (broth microdilution or agar dilution, CLSI); conditions: E. coli LptD
Procedure: as §2

S. pyogenes ATCC 19615 = assay: MIC (broth microdilution or agar dilution, CLSI)
Procedure: as §2

E. coli ΔTolC = assay: microbe, parasite or virus in culture; conditions: E. coli ΔTolC
Procedure: as §2

[1] = Enterococcus faecium, read-out: MIC
[2] = Staphylococcus aureus, read-out: MIC
[3] = Pseudomonas aeruginosa, ATCC27853, read-out: MIC
[4] = Enterococcus faecalis, ATCC29212, E. faecalis ATCC 29212, read-out: MIC
[5] = Klebsiella oxytoca, read-out: MIC
[6] = Acinetobacter baumannii, ATCC19606, read-out: MIC
[7] = Escherichia coli, ATCC25922, read-out: MIC
[8] = Staphylococcus aureus, ATCC29213, S. aureus ATCC 29213, read-out: MIC
[9] = Streptococcus pneumoniae, ATCC49619, S. pneumoniae ATCC 49619, read-out: MIC
[10] = Escherichia coli, read-out: MIC
[11] = Streptococcus pyogenes, ATCC19615, S. pyogenes ATCC 19615, read-out: MIC

SMILES	MIC (E. faecium Clinical VRE; [1])	MIC (S. aureus cErmA; [2])	MIC (P. aeruginosa ATCC 27853; [3])	MIC (E. faecalis ATCC 29212; [4])	MIC (K. oxytoca Clinical; [5])	MIC (A. baumannii ATCC 19606; [6])	MIC (E. coli ATCC 25922; [7])	MIC (S. aureus ATCC 29213; [8])	MIC (S. pneumoniae ATCC 49619; [9])	MIC (E. coli LptD; [10])	MIC (S. pyogenes ATCC 19615; [11])	MIC (E. coli ΔTolC; Escherichia coli)	further results
CC[C@@H]1CCO[C@@H]2[C@H](CN[C@@H]2C(=O)N[C@H]([C@H](C)Cl)[C@H]2OC(SC)[C@H](O)[C@H](O)C2O)C1 (stereo partly drawn) [FSA-10-10-012]	8 µg/mL (≈ 17.1 µM)	8 µg/mL (≈ 17.1 µM)	> 128 µg/mL	0.25 µg/mL (≈ 0.535 µM)	16 µg/mL (≈ 34.3 µM)	32 µg/mL (≈ 68.5 µM)	16 µg/mL (≈ 34.3 µM)	0.125 µg/mL (≈ 0.268 µM)	0.125 µg/mL (≈ 0.268 µM)	2 µg/mL (≈ 4.28 µM)	0.125 µg/mL (≈ 0.268 µM)	0.5 µg/mL (≈ 1.07 µM)	–
C=C[C@@H]1CCO[C@@H]2[C@H](CN[C@@H]2C(=O)N[C@H]([C@H](C)Cl)[C@H]2OC(SC)[C@H](O)[C@H](O)C2O)C1 (stereo partly drawn) [FSA-10-10-013]	32 µg/mL (≈ 68.8 µM)	64 µg/mL (≈ 138 µM)	> 128 µg/mL	2 µg/mL (≈ 4.3 µM)	128 µg/mL (≈ 275 µM)	> 128 µg/mL	64 µg/mL (≈ 138 µM)	0.25 µg/mL (≈ 0.538 µM)	0.25 µg/mL (≈ 0.538 µM)	4 µg/mL (≈ 8.6 µM)	0.25 µg/mL (≈ 0.538 µM)	2 µg/mL (≈ 4.3 µM)	–
CSC1O[C@H]([C@H](NC(=O)[C@H]2NC[C@@H]3C[C@H](CC(F)F)CCO[C@H]32)[C@H](C)Cl)C(O)[C@@H](O)[C@H]1O (stereo partly drawn) [FSA-10-09-093]	–	–	–	–	–	–	–	–	–	–	–	–	MIC (E. faecium Clinical VRE): 8 µg/mL (≈ 15.9 µM); MIC (S. aureus cErmA): 32 µg/mL (≈ 63.6 µM); MIC (P. aeruginosa ATCC 27853): >128 µg/mL; MIC (E. faecalis ATCC 29212; E. faecalis ATCC 29212): 0.25 µg/mL (≈ 0.497 µM); MIC (K. oxytoca Clinical): 16 µg/mL (≈ 31.8 µM); MIC (A. baumannii ATCC 19606): 128 µg/mL (≈ 254 µM); MIC (E. coli ATCC 25922): 16 µg/mL (≈ 31.8 µM); MIC (S. aureus ATCC 29213; S. aureus ATCC 29213): 0.25 µg/mL (≈ 0.497 µM); MIC (S. pneumoniae ATCC 49619; S. pneumoniae ATCC 49619): 0.5 µg/mL (≈ 0.994 µM); MIC (E. coli LptD): 4 µg/mL (≈ 7.95 µM); MIC (S. pyogenes ATCC 19615; S. pyogenes ATCC 19615): 0.5 µg/mL (≈ 0.994 µM); MIC (E. coli ΔTolC): 1 µg/mL (≈ 1.99 µM)
CSC1O[C@H]([C@H](NC(=O)[C@H]2NC[C@@H]3C[C@H](CC4CC4)CCO[C@H]32)[C@H](C)Cl)C(O)[C@@H](O)[C@H]1O (stereo partly drawn) [FSA-10-10-001]	2 µg/mL (≈ 4.06 µM)	4 µg/mL (≈ 8.11 µM)	> 128 µg/mL	0.06 µg/mL (≈ 0.122 µM)	8 µg/mL (≈ 16.2 µM)	16 µg/mL (≈ 32.5 µM)	4 µg/mL (≈ 8.11 µM)	0.125 µg/mL (≈ 0.254 µM)	0.125 µg/mL (≈ 0.254 µM)	0.5 µg/mL (≈ 1.01 µM)	0.125 µg/mL (≈ 0.254 µM)	0.25 µg/mL (≈ 0.507 µM)	–
